The source of these data is patent US10390532B2, “Insecticide composition including thiamethoxam and a synergistic agent” (priority 2015, dated 2019).

Type in all cases: cell-based, Periplaneta americana
For test [1], the system named is cockroach Dorsal Unpaired Median (DUM) neurons. The conditions noted are these: for origin of the intracellular calcium rise: with caffeine, omega-conotoxin, pirenzepine. Background: Calcium flux is commonly read through the fluorescence of an indicator in the cells.
For test [2] the test system is unchanged. Description: Whole-cell patch-clamp, current-clamp: DUM neuron spontaneous electrical activity. The conditions noted are these: 10^-8 M. The protocol:
(§1) Experiments were carried out on cockroach Dorsal Unpaired Median (DUM) neurons. Cockroach neuronal preparations are commonly used as biomedical models for vertebrates and invertebrates and DUM neurons are, furthermore, electrophysiologically and pharmacologically well characterized since most of the biophysical and pharmacological properties of ionic currents and receptors underlying and modulating their spontaneous action potentials have been established by using the well-known patch-clamp technique.
(§2) Adult male cockroaches, Periplaneta americana (see FIG. 1), are taken from our laboratory colonies, which are maintained under standard conditions (29° C., photoperiod of 12 h light/12 h dark). Animals are immobilized dorsal-side up on a dissection dish. The dorsal cuticle, gut and some dorso-longitudinal muscles are removed to allow access to the ventral nerve cord. The abdominal nerve cord and its terminal abdominal ganglion (TAG), carefully dissected under a binocular microscope, are placed in normal saline. Animal care and handling procedures are in accordance with French institutional and national health guidelines. […]
(§3) Electrical activity and neonicotinoïd-induced inward currents are recorded using the patch clamp technique in the whole-cell recording configuration under current-clamp and voltage-clamp mode, respectively. […] Signals are recorded with an Axopatch 200A amplifier. […]
A general note: In patch-clamp work, channel activity is measured electrically.

The test system is the same in test [3]. The test is described as follows: Voltage-clamp thiamethoxam-induced current in DUM neurons after pretreatment with acetylcholine. On the procedure: Electrical activity and neonicotinoïd-induced inward currents are recorded using the patch clamp technique in the whole-cell recording configuration under current-clamp and voltage-clamp mode, respectively. Patch-clamp electrodes are pulled from borosilicate glass capillary tubes (GC150T-10) using a P-97 model puller. Patch pipettes have resistances ranging from 1 to 1.2 MΩ when filled with internal pipette solution. The liquid junction potential between extracellular and intracellular solutions is always corrected before the formation of a giga Ohm seal (>3GΩ). Signals are recorded with an Axopatch 200A amplifier. […] Under voltage-clamp conditions, DUM neuron somata are voltage-clamped at a steady state holding potential of −50 mV to measure the effects of thiamethoxam applied alone and after pretreatment with IR3535® (10^−8 M). Experiments are carried out at room temperature.
Acetylcholine at a concentration of 10^−3M has been applied to DUM neurons during one second, three minutes before testing thiamethoxam at 10^−7M, 10^−6M and 10^−5M on DUM neurons under the same protocol as example 3.

Test [4] has the same test system. Description: Whole-cell patch-clamp, voltage-clamp: thiamethoxam-induced inward current in DUM neurons. The conditions noted are these: holding potential -50 mV. The protocol: as §1, §2, §3

The structures appear in SMILES notation. Like-named read-outs stand apart in the source and are kept apart here.

As to `CCN(CC)C(=O)c1cccc(C)c1` [DEET, N,N-diethyl-3-methylbenzamide], the “effect on intracellular calcium concentration” value in test [1] (DEET at concentrations higher than 10^-7 M) was “an important decrease of the intracellular calcium concentration”. Further, the “ratio of emitted fluorescence (340 nm/380 nm)” value in test [1] (DEET between 3.10-8 M and 3.10-7 M) is “above 0.6”. Besides, the “concentration at which the intracellular calcium elevation reaches a maximum” value in test [1] (DEET, DUM neurons) is given as 10^−7 M. In addition, in test [1] (DEET, maximum at 10^-7 M), the “maximum value of ratio of emitted fluorescence (340 nm/380 nm)” value is on record as 0.7.
As for `CCCCN(CCC(=O)OCC)C(C)=O` [IR3535®, 3-[N-Butyl-N-acetyl]-aminopropionic acid, ethyl ester], in test [1] (DUM neurons), the “lower concentration which produces a significant elevation of intracellular calcium concentration” value is reported as 10^−8 M. For the same molecule, the “concentration at which the zone I intracellular calcium increase reaches a maximum” value in test [1] (DUM neurons, zone I) is on record as 10^−8 M. Also, the “concentration producing the maximum effect on intracellular calcium (zone III)” value in test [1] (DUM neurons, zone III) is 3.10^−5 M. Further, the “origin of the intracellular calcium rise” value in test [1] (IR3535 at 10^-8 M) is “results from extracellular calcium through plasma membrane voltage-dependent calcium channels via M1/M3 mAChR sub-type modulation”; in test [1] (higher concentrations of IR3535 (10^-5 M)), “both extracellular calcium and calcium released from internal stores are involved”. In addition, the “effect on membrane potential and spontaneous action potential discharge frequency” value in test [2] is reported as “induces a significant membrane depolarization associated with an increase of the spontaneous action potential discharge frequency”.
`CN1COCN(Cc2cnc(Cl)s2)/C1=N\[N+](=O)[O-]` [thiamethoxam]: the “current amplitude, rank among tested concentrations” value in test [3] (thiamethoxam 10^-6 M after acetylcholine 10^-3 M) is “lowest value”; in test [3] (thiamethoxam 10^-7 M after acetylcholine 10^-3 M), “highest value”. Besides, the induced current result in test [3] (thiamethoxam 10^-7, 10^-6, 10^-5 M after acetylcholine 10^-3 M (1 s, 3 min before)) is reported as “induces a current”; in test [3] (thiamethoxam alone, no acetylcholine pretreatment) it was “no current has been recorded”. Further, in test [4] (thiamethoxam 10^-6 M after pretreatment with IR3535 10^-8 M), the “mean inward current amplitude relative to thiamethoxam applied alone” value is on record as “about 6 fold”. Moreover, the “induced inward current amplitude” value in test [4] (thiamethoxam 10^-6 M alone, n=3-4) is reported as “induces an inward current with small amplitudes”.
